We go through 29 compounds from US20240158370A1, “CK1 alpha AND DUAL CK1 alpha / GSPT1 DEGRADING COMPOUNDS” (Innovo Therapeutics, Inc., priority 2022, published 2024).

Each structure is given as a SMILES string.

One assay has as its target T1, CK1α (Homo sapiens, UniProt P48729+Q96SW2).
T1 construct: CSNK1A1-HiBit KI HEK293(LgBit) Cells; host or cells: HEK293(LgBit) knock-in cells
Kind of assay: HiBiT degradation assay, CK1α, Procedure A. The assay is classed as cell-based. The method, boiled down:
(§1)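 DC50 and Ymin (% remaining) were derived by four-parameter fitting of luminescence data. The data come from a six-hour, 37° C compound exposure of cells in DMEM/10% FBS over a ten-point range, 10 μM to 0.005 μM, followed by Nano-Glo HiBiT lytic detection.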

The next assay concerns the target GSPT1 (Homo sapiens, UniProt P15170+Q96SW2). Kind of assay: HiBiT degradation assay, GSPT1, Procedure A. The format is cell-based. Also noted: HiBit-GSPT1 KI HEK293(LgBit) Cells; host or cells: HEK293(LgBit) knock-in cells. The method, boiled down: as §1

A word on the DC50: it is the concentration at which degradation of the target reaches its halfway point. Higher therefore signals degradation only at high concentration.

T1 sequence (P48729 whole entry): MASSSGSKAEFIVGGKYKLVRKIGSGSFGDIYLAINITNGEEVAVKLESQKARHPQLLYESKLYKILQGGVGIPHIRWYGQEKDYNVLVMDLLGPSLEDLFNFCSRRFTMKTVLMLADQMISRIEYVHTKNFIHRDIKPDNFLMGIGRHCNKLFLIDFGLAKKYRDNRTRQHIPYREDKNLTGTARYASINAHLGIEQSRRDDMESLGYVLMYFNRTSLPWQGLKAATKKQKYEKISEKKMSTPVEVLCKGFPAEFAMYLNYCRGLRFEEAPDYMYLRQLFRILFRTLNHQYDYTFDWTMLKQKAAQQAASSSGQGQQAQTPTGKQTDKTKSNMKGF
T1 sequence (Q96SW2 whole entry): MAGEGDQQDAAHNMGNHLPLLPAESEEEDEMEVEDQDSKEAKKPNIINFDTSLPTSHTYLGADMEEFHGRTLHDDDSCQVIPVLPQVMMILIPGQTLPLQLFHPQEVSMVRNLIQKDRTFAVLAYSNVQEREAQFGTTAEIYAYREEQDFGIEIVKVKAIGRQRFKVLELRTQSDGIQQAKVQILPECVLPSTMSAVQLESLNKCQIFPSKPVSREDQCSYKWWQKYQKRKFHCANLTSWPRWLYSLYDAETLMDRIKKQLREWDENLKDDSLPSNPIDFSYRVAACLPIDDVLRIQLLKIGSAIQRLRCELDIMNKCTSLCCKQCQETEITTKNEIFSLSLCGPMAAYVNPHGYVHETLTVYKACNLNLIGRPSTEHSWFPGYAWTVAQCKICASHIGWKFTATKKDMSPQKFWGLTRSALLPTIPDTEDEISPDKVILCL
T1 sequence (Q16531 whole entry partner): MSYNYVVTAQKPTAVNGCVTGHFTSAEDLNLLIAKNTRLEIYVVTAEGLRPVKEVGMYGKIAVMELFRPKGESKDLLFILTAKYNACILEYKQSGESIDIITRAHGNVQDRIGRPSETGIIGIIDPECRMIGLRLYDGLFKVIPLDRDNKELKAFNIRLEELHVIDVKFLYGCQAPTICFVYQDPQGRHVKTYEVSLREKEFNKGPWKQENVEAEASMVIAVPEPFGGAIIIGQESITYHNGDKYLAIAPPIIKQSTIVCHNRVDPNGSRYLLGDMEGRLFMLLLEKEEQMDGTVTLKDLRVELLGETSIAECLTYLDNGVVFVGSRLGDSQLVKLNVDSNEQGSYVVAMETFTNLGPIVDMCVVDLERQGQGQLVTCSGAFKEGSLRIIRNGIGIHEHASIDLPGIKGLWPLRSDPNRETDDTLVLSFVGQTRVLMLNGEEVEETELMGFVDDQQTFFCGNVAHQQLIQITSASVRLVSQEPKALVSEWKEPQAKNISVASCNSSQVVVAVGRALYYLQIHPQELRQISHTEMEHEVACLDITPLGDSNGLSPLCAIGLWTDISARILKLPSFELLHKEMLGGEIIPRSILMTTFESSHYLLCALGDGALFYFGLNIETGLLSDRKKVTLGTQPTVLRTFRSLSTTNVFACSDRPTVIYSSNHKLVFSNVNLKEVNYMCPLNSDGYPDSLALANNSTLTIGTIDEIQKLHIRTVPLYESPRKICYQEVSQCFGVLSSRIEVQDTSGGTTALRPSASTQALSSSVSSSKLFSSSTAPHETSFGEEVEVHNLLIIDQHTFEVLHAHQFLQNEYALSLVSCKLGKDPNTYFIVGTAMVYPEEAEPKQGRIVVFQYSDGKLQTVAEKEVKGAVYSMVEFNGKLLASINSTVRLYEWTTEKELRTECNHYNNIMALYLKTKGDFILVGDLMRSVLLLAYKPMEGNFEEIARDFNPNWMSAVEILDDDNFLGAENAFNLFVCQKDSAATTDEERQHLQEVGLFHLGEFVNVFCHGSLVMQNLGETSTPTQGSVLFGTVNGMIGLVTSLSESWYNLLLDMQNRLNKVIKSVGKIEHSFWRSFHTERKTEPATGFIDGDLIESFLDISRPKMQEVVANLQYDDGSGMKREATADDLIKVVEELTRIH
GSPT1, sequence (P15170 whole entry): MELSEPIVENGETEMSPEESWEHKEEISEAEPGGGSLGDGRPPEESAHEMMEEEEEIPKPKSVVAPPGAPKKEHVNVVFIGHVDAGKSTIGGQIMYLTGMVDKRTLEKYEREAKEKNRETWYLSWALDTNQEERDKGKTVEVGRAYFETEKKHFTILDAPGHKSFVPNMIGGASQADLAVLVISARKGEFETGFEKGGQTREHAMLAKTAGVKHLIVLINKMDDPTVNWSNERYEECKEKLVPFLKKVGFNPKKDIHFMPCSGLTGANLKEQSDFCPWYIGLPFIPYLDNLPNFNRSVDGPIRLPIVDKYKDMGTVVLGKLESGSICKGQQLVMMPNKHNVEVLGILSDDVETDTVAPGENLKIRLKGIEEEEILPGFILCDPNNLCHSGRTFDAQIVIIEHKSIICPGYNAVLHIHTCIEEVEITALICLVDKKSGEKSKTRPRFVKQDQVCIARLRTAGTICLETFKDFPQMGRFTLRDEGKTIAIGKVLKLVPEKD
GSPT1, sequence (Q96SW2 whole entry): as the sequence (Q96SW2 whole entry) above
GSPT1, sequence (Q16531 whole entry partner): as the sequence (Q16531 whole entry partner) above

Regarding `Cn1ncc(-c2ccc3c(c2)CN(C2CCC(=O)NC2=O)C3=O)c1-c1cnn(CC(F)F)c1` (centres unmarked) [Example 388], at CK1α (six hours), the “CK1α Ymin” value is given as “E (E = >25-75% remaining)” and the DC50 is no less than 25 nM. Also, on GSPT1 (six hours), the DC50 was no less than 25 nM and the “GSPT1 Ymin” value is “F (F = >75-100% remaining)”.
In the case of `Cn1cnc(-c2ccc3c(c2)CN(C2CCC(=O)NC2=O)C3=O)c1-c1ccc2c(cnn2C)c1` (centres unmarked) [Example 513], on CK1α (six hours), the “CK1α Ymin” value is “C (C = 0-10% remaining)” and the DC50 is less than 25 nM. Further, at GSPT1 (six hours), the DC50 is no less than 25 nM and the “GSPT1 Ymin” value is given as “F (F = >75-100% remaining)”.
Consider `Cn1ncc(-c2ccc3c(c2)CN(C2CCC(=O)NC2=O)C3=O)c1-c1ccc(N2CCCC2)cc1` (centres unmarked) [Example 159], for which, at CK1α (six hours incubation), the “CK1α Ymin” value is listed as “D (D = >10- 25% remaining)” and the DC50 is less than 25 nM. On GSPT1 (six hours incubation), the DC50 is no less than 25 nM and the “GSPT1 Ymin” value was “F (F = >75-100% remaining)”.
In the case of `Cn1cc(-c2ccc3c(c2)CN(C2CCC(=O)NC2=O)C3=O)nc1C1OCCCO1` (centres unmarked) [Example 415, 3-(5-(2-(1,3-dioxan-2-yl)-1-methyl-1H-imidazol-4-yl)-1-oxoisoindolin-2-yl) piperidine-2,6-dione], at CK1α (six hours), the “CK1α Ymin” value is given as “E (E = >25-75% remaining)” and the DC50 was less than 25 nM. For the same compound, at GSPT1 (six hours), the DC50 is no less than 25 nM and the “GSPT1 Ymin” value is given as “F (F = >75-100% remaining)”.
With `COc1ccc(-c2c(-c3ccc4c(c3)CN(C3CCC(=O)NC3=O)C4=O)ncn2C)cc1OCc1ccccc1` (centres unmarked) [Example 358], at CK1α (six hours incubation), the “CK1α Ymin” value is “E (E = >25-75% remaining)” and the DC50 is less than 25 nM. On GSPT1 (six hours incubation), the DC50 is no less than 25 nM and the “GSPT1 Ymin” value is “F (F = >75-100% remaining)”.
With `Cn1cnc(-c2ccc3c(c2)CN(C2CCC(=O)NC2=O)C3=O)c1-c1cccc(-c2cccnc2)c1` (centres unmarked) [Example 352], on CK1α (six hours incubation), the “CK1α Ymin” value was “C (C = 0-10% remaining)” and the DC50 is less than 25 nM. At GSPT1 (six hours incubation), the DC50 is no less than 25 nM and the “GSPT1 Ymin” value was “F (F = >75-100% remaining)”.
With `CC(C)Cn1cc(-c2c(-c3ccc4c(c3)CN(C3CCC(=O)NC3=O)C4=O)cnn2C)cn1` (centres unmarked) [Example 384], on CK1α (six hours), the “CK1α Ymin” value is recorded as “E (E = >25-75% remaining)” and the DC50 was no less than 25 nM. At GSPT1 (six hours), the DC50 is less than 25 nM and the “GSPT1 Ymin” value is “F (F = >75-100% remaining)”.
For `Cc1cc(-c2nc(-c3ccc4c(c3)CN(C3CCC(=O)NC3=O)C4=O)cn2C)ccc1Cl` (centres unmarked) [Example 574] the same measures were “C (C = 0-10% remaining)”, less than 25 nM, no less than 25 nM and “E (E = >25-75% remaining)”.
Regarding `Cc1ccc(-c2c(-c3ccc4c(c3)CN(C3CCC(=O)NC3=O)C4=O)ncn2C)cc1Cl` (centres unmarked) [Example 197], at CK1α (six hours incubation), the “CK1α Ymin” value was “E (E = >25-75% remaining)” and the DC50 is less than 25 nM. Besides, on GSPT1 (six hours incubation), the DC50 was less than 25 nM and the “GSPT1 Ymin” value is given as “E (E = >25-75% remaining)”.
Consider `COc1cccc(COc2cccc(-c3c(-c4ccc5c(c4)CN(C4CCC(=O)NC4=O)C5=O)ncn3C)c2)c1` (centres unmarked) [Example 303], for which, on CK1α (six hours incubation), the “CK1α Ymin” value was “E (E = >25-75% remaining)” and the DC50 is less than 25 nM. Besides, on GSPT1 (six hours incubation), the DC50 is no less than 25 nM and the “GSPT1 Ymin” value is “F (F = >75-100% remaining)”.
For `Cn1ncc(-c2ccc3c(c2)CN(C2CCC(=O)NC2=O)C3=O)c1-c1ccc(Cl)cc1` (centres unmarked) [Example 216] the same measures were “E (E = >25-75% remaining)”, less than 25 nM, no less than 25 nM and “F (F = >75-100% remaining)”.
For `Cn1cc(-c2ccc3c(c2)CN(C2CCC(=O)NC2=O)C3=O)nc1-c1ccc(OC(F)F)cc1` (centres unmarked) [Example 569], on CK1α (six hours), the “CK1α Ymin” value is “C (C = 0-10% remaining)” and the 50% degradation concentration (DC50) was less than 25 nM. At GSPT1 (six hours), the DC50 was less than 25 nM and the “GSPT1 Ymin” value is “F (F = >75-100% remaining)”.
With `Cn1cnc(-c2ccc3c(c2)CN(C2CCC(=O)NC2=O)C3=O)c1-c1cnn(-c2ccccc2)c1` (centres unmarked) [Example 332], on CK1α (six hours incubation), the “CK1α Ymin” value is given as “D (D = >10- 25% remaining)” and the DC50 was less than 25 nM. Further, on GSPT1 (six hours incubation), the DC50 is no less than 25 nM and the “GSPT1 Ymin” value is recorded as “F (F = >75-100% remaining)”.
On to `Cc1c(N)cccc1-c1nc(-c2ccc3c(c2)CN(C2CCC(=O)NC2=O)C3=O)cn1C` (centres unmarked) [Example 573], for which, on CK1α (six hours), the “CK1α Ymin” value is on record as “C (C = 0-10% remaining)” and the half-maximal degradation concentration (DC50) is less than 25 nM. For the same compound, at GSPT1 (six hours), the DC50 was less than 25 nM and the “GSPT1 Ymin” value is recorded as “E (E = >25-75% remaining)”.
`Cc1nc2ccc(-c3c(-c4ccc5c(c4)CN(C4CCC(=O)NC4=O)C5=O)cnn3C)cc2[nH]1` (centres unmarked) [Example 391]: on CK1α (six hours), the “CK1α Ymin” value is “C (C = 0-10% remaining)” and the DC50 is no less than 25 nM. In addition, on GSPT1 (six hours), the 50% degradation concentration (DC50) was no less than 25 nM and the “GSPT1 Ymin” value is recorded as “F (F = >75-100% remaining)”.
For the compound `Cn1ncc(-c2ccc3c(c2)CN(C2CCC(=O)NC2=O)C3=O)c1-c1ccc2sccc2c1` (centres unmarked) [Example 478], at CK1α (six hours), the “CK1α Ymin” value is given as “D (D = >10- 25% remaining)” and the DC50 was less than 25 nM. Besides, at GSPT1 (six hours), the DC50 was no less than 25 nM and the “GSPT1 Ymin” value is reported as “F (F = >75-100% remaining)”.
On to `Cn1cnc(-c2ccc3c(c2)CN(C2CCC(=O)NC2=O)C3=O)c1-c1ccc(CO)cc1` (centres unmarked) [Example 236], for which, at CK1α (six hours incubation), the “CK1α Ymin” value is “C (C = 0-10% remaining)” and the half-maximal degradation concentration (DC50) is less than 25 nM. At GSPT1 (six hours incubation), the DC50 is no less than 25 nM and the “GSPT1 Ymin” value was “E (E = >25-75% remaining)”.
For `Cn1cnc(-c2ccc3c(c2)CN(C2CCC(=O)NC2=O)C3=O)c1-c1cc(F)ccc1F` (centres unmarked) [Example 179] the same measures were “D (D = >10- 25% remaining)”, less than 25 nM, less than 25 nM and “E (E = >25-75% remaining)”.
With `Cc1ccc(C#N)cc1-c1c(-c2ccc3c(c2)CN(C2CCC(=O)NC2=O)C3=O)ncn1C` (centres unmarked) [Example 243], at CK1α (six hours incubation), the “CK1α Ymin” value is “E (E = >25-75% remaining)” and the DC50 was no less than 25 nM. Besides, at GSPT1 (six hours incubation), the DC50 was no less than 25 nM and the “GSPT1 Ymin” value is given as “F (F = >75-100% remaining)”.
Consider `Cn1c(C2CC2)nc(-c2ccc3c(c2)CN(C2CCC(=O)NC2=O)C3=O)c1-c1cncnc1` (centres unmarked) [Example 117, 3-(5-(2-cyclopropyl-1-methyl-5-(pyrimidin-5-yl)-1H-imidazol-4-yl)-1-oxoisoindolin-2-yl)piperidine-2,6-dione], for which, on CK1α (six hours incubation), the “CK1α Ymin” value is given as “C (C = 0-10% remaining)” and the DC50 is less than 25 nM. On GSPT1 (six hours incubation), the DC50 was no less than 25 nM and the “GSPT1 Ymin” value is reported as “F (F = >75-100% remaining)”.
For `Cn1cnc(-c2ccc3c(c2)CN(C2CCC(=O)NC2=O)C3=O)c1-c1ccc(Cl)c(C#N)c1` (centres unmarked) [Example 270] the same measures were “D (D = >10- 25% remaining)”, less than 25 nM, no less than 25 nM and “F (F = >75-100% remaining)”.
For `Cn1cnc(-c2ccc3c(c2)CN(C2CCC(=O)NC2=O)C3=O)c1-c1ccc(C#N)cc1F` (centres unmarked) [Example 187] the same measures were “D (D = >10- 25% remaining)”, less than 25 nM, no less than 25 nM and “F (F = >75-100% remaining)”.
In the case of `Cn1c(C2CC2)nc(-c2ccc3c(c2)CN(C2CCC(=O)NC2=O)C3=O)c1-c1ccncc1` (centres unmarked) [Example 45, 3-(5-(2-Cyclopropyl-1-methyl-5-(pyridin-4-yl)-1H-imidazol-4-yl)-1-oxoisoindolin-2-yl)piperidine-2,6-dione], on CK1α (six hours incubation), the “CK1α Ymin” value is “C (C = 0-10% remaining)” and the DC50 is less than 25 nM. In addition, at GSPT1 (six hours incubation), the DC50 is no less than 25 nM and the “GSPT1 Ymin” value is given as “F (F = >75-100% remaining)”.
For the compound `Cn1cnc(-c2ccc3c(c2)CN(C2CCC(=O)NC2=O)C3=O)c1C1=CCCCC1` (centres unmarked) [Example 595], on CK1α (six hours), the “CK1α Ymin” value was “D (D = >10- 25% remaining)” and the DC50 is less than 25 nM. Also, at GSPT1 (six hours), the DC50 was no less than 25 nM and the “GSPT1 Ymin” value is listed as “F (F = >75-100% remaining)”.
For `Cn1cnc(-c2ccc3c(c2)CN(C2CCC(=O)NC2=O)C3=O)c1-c1ccc(N)nc1` (centres unmarked) [Example 522] the same measures were “D (D = >10- 25% remaining)”, no less than 25 nM, no less than 25 nM and “E (E = >25-75% remaining)”.
With `Cc1c(-c2c(-c3ccc4c(c3)CN(C3CCC(=O)NC3=O)C4=O)ncn2C)cnn1C` (centres unmarked) [Example 322], at CK1α (six hours incubation), the “CK1α Ymin” value is recorded as “C (C = 0-10% remaining)” and the DC50 is less than 25 nM. For the same compound, at GSPT1 (six hours incubation), the DC50 is less than 25 nM and the “GSPT1 Ymin” value is reported as “F (F = >75-100% remaining)”.
With `Cc1cccc(-c2nc(-c3ccc4c(c3)CN(C3CCC(=O)NC3=O)C4=O)cn2C)c1` (centres unmarked) [Example 570], on CK1α (six hours), the “CK1α Ymin” value is on record as “C (C = 0-10% remaining)” and the DC50 is less than 25 nM. Also, on GSPT1 (six hours), the DC50 was no less than 25 nM and the “GSPT1 Ymin” value is on record as “E (E = >25-75% remaining)”.
For `Cc1cccc(-c2c(-c3ccc4c(c3)CN(C3CCC(=O)NC3=O)C4=O)cnn2C)c1F` (centres unmarked) [Example 106], on CK1α (six hours incubation), the “CK1α Ymin” value is reported as “E (E = >25-75% remaining)” and the DC50 was less than 25 nM. For the same compound, at GSPT1 (six hours incubation), the DC50 was no less than 25 nM and the “GSPT1 Ymin” value is “F (F = >75-100% remaining)”.
For `Cn1ncc(-c2ccc3c(c2)CN(C2CCC(=O)NC2=O)C3=O)c1-c1ccncc1` (centres unmarked) [Example 361] the same measures were “E (E = >25-75% remaining)”, less than 25 nM, no less than 25 nM and “F (F = >75-100% remaining)”.
